Experimental data: the supplement of paper PMC10307832

Legend:
Test in all cases: relative viability (nuclei count vs DMSO), 5 days (fraction); higher = more cells survive
[1] = compound: C[C@@H](C(=O)N[C@@H](C1CCCCC1)C(=O)N2CCC[C@H]2C(=O)N[C@@H]3[C@@H](CC4=CC=CC=C34)OCC#CC#CCO[C@@H]5CC6=CC=CC=C6[C@@H]5NC(=O)[C@@H]7CCCN7C(=O)[C@H](C8CCCCC8)NC(=O)[C@H](C)NC)NC [AZD5582] + Nc1ncn([C@H]2C[C@H](O)[C@@H](CO)O2)c(=O)n1 [Decitabine] (partner 2 µM)
How it was run: (§1)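 Medians of duplicate plates are given as relative viability. That measure is the nuclei count in treated wells divided by the count in vehicle wells. Counts were taken on 4× images of lung cancer cell lines in 1536-well plates, 5 days after pin-tool dosing the day after seeding with one drug alone or a fixed anchor-drug dose plus five library-drug doses (not always all listed) in √10 steps.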

[2] = compound: C[C@@H](C(=O)N[C@@H](C1CCCCC1)C(=O)N2CCC[C@H]2C(=O)N[C@@H]3[C@@H](CC4=CC=CC=C34)OCC#CC#CCO[C@@H]5CC6=CC=CC=C6[C@@H]5NC(=O)[C@@H]7CCCN7C(=O)[C@H](C8CCCCC8)NC(=O)[C@H](C)NC)NC [AZD5582] + CS(=O)(=O)N1CCN(Cc2cc3nc(-c4cccc5[nH]ncc45)nc(N4CCOCC4)c3s2)CC1 [Pictilisib] (partner 1 µM)
How it was run: as §1

[3] = compound: Cn1nnc2c(C(N)=O)ncn2c1=O [Temozolomide] + CC(=O)Nc1cccc(-n2c(=O)n(C3CC3)c(=O)c3c(Nc4ccc(I)cc4F)n(C)c(=O)c(C)c32)c1 [Trametinib] (partner 0.02 µM)
How it was run: as §1

[4] = compound: Cn1nnc2c(C(N)=O)ncn2c1=O [Temozolomide] + NC(=O)Nc1cc(-c2cccc(F)c2)sc1C(=O)N[C@H]1CCCNC1 [AZD7762] (partner 0.2 µM)
How it was run: as §1

Row | Cell Line | relative viability ([1]; first compound 0.001581 µM) | relative viability ([1]; first compound 0.005 µM) | relative viability ([1]; first compound 0.01581 µM) | relative viability ([1]; first compound 0.05 µM) | relative viability ([2]; first compound 0.001581 µM) | relative viability ([2]; first compound 0.005 µM) | relative viability ([2]; first compound 0.05 µM) | relative viability ([3]; first compound 0.2 µM) | relative viability ([3]; first compound 0.6325 µM) | relative viability ([3]; first compound 2 µM) | relative viability ([3]; first compound 6.325 µM) | relative viability ([3]; first compound 20 µM) | relative viability ([4]; first compound 0.2 µM) | relative viability ([4]; first compound 0.6325 µM) | relative viability ([4]; first compound 2 µM) | relative viability ([4]; first compound 6.325 µM) | relative viability ([4]; first compound 20 µM) | relative viability ([2]; first compound 0.01581 µM)
1 | NCI-H2405 | 0.772 | 0.861 | 0.687 | 0.721 | 0.459 | 0.856 | 0.612 | 0.585 | 0.699 | 0.798 | 0.569 | 0.597 | 0.821 | 0.79 | 0.828 | 0.759 | 0.75 | –
2 | NCI-H3122 | 0.476 | 0.384 | 0.42 | 0.224 | 0.626 | 0.569 | 0.189 | 0.222 | 0.291 | 0.246 | 0.251 | 0.242 | 1.02 | 1.05 | 1.01 | 0.922 | 0.934 | 0.548
3 | PC-3 [JPC-3] | 0.737 | 0.641 | 0.855 | 0.431 | 0.664 | 0.543 | 0.332 | 0.547 | 0.769 | 0.821 | 0.724 | 0.433 | 0.775 | 0.916 | 0.825 | 0.797 | 0.529 | 0.607
4 | PC-14 | 0.12 | 0.165 | 0.205 | 0.116 | 0.501 | 0.549 | 0.295 | 0.96 | 0.766 | 0.758 | 0.813 | 0.585 | 0.361 | 0.402 | 0.322 | 0.275 | 0.15 | 0.598
5 | RERF-LC-KJ | – | – | 0.779 | 0.208 | 0.471 | – | 0.392 | 0.788 | 0.815 | 0.763 | 0.845 | 0.826 | 0.977 | 0.926 | 0.989 | 0.953 | 1.01 | 0.541
